Results as given in PubChem BioAssay AID1918955 (Molecular Pharmacology Branch, DTP, NCI, 2023).

Tested on: NCI/ADR-RES complex spheroid viability
Experiment: Anticancer human tumor NCI/ADR-RES cell line growth inhibition;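 note: spheroids exposed to compounds for 7 days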;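 for viability, T/C: 100% = DMSO vehicle treated spheroids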
Conditions: for IC50: curve of first compound; for viability, T/C: stronger effect = lower value
Source text: Multicellular complex tumor spheroid response to LSD1 Inhibitor Iadademstat in combination with a variety of drugs and investigational agents in selected tumor cell lines
The current study was undertaken to assess response to LSD1 inhibitors in combination with standard-of-care drugs and investigational agents in solid tumor complex spheroid models as well as in the K-562 leukemia. Complex spheroids include a stromal component modeled by human endothelial cells (HUVEC) and fibroblasts modeled by human mesenchymal stem cells (MSCs). The concentration ranges selected for each drug and investigational agent were based upon clinically achievable concentrations if the clinical Cmax of the agent was known.
Compounds. The drugs and investigational agents used in this study are listed on Table 1. All of the agents used, including staurosporine (NSC755774) and gemcitabine (NSC613327), were obtained from the Developmental Therapeutics Program, NCI. FDA-approved anticancer drugs are available from the NCI at http://dtp.nci.nih.gov/branches/dscb/oncology_drugset_explanation.html. Drugs and investigational agents were >95% pure by proton nuclear magnetic resonance (NMR) and liquid chromatography/mass spectrometry (LC/MS). Stock solutions were prepared at 400x in DMSO, stored at -70 degrees C, and diluted in fresh medium prior to their use. The final concentration of DMSO in cell culture wells never exceeded 0.25% (v/v). The FDA-approved anticancer drug set is available from the Developmental Therapeutics Program at https://dtp.cancer.gov/organization/dscb/obtaining/available_plates.htm. All drugs and investigational agents were tested over a range starting from a high concentration at or near the clinical Cmax and decreasing in half-log increments. If the clinical Cmax for an agent had not been determined, the highest concentration tested was 10 microM.
Cell Lines. The patient-derived cancer cell (PDC) lines: 292921-168-R-J2-PDC, K24384-001-R-PDC, and 521955-158-R2-J5-PDC pancreatic carcinomas, 556581-035-R-J1 ovarian carcinoma, 324938-238-R-J1-PDC, 855422-203-R-J1-PDC and 883617-216-R-J1-PDC urothelial bladder carcinomas, 743489-274-T-PDC renal cell carcinoma, 138582-R-J1 Merkel cell tumor, K60290-347-R-J1 and K57222-313-R-J1-PDC glioblastomas, 653999-131-R-J2-PDC, LG0703-F948-PDC, and 349418-098-R-PDC non-small cell lung carcinomas, 885512-296-R-J2-PDC, 171881-019-R-J1-PDC breast carcinomas and 186277-243-T-J2-PDC and 233499-124-R-J2-PDC colon carcinomas were obtained from the NCI Patient-Derived Models Repository (PDMR, https://pdmr.cancer.gov). The established cell lines NCI/ADR-RES (RRID:CVCL_14520 and OVCAR-5 (RRID:CVCL_1628) ovarian carcinomas, 786-O (RRID:CVCL_1051) and A498 (RRID:CVCL_A498) renal cell carcinoma, NCI-H211 (ATCC, cat. CRL-5824; RRID:CVCL_1529), NCI-H196 (ATCC, cat. CRL-5823, RRID:CVCL_1509), SW 1271 (ATCC, cat. CRL-2177, RRID:CVCL_1716) and NCI-H1876 (ATCC, cat. CRL-5902, RRID:CVCL_1503) small cell lung carcinomas, MDA-MB-231 (RRID:CVCL_0062) and MDA-MB-468 (RRID:CVCL_0419)breast carcinomas (10-12). Pooled donor human umbilical vein endothelial cells (HUVEC, Lonza, cat. CC-2519) and human mesenchymal stem cells (hMSC, Lonza, cat. PT-2501) were purchased from Lonza (Walkersville, MD).
Cell Culture. All cells were maintained in an incubator at 37 degrees C and 5% CO2 with 95% humidity. The PDC lines were cultured according to standard operating procedures established by the NCI PDMR (https://pdmr.cancer.gov). Briefly all PDCs were thawed and cultured in Matrigel-coated flasks prepared with a working solution of 1X Ham's F-12 nutrient mix, without supplementation (Invitrogen, Waltham, MA, cat. 11765054), 100 U/mL penicillin-streptomycin (Invitrogen, cat. 15140122), and 2.5% Matrigel (Corning Inc., Corning, NY, cat. 354248) for the first three passages. […]

[1] = second compound 0.1 µM, first compound 0.000316 µM
[2] = second compound 0.1 µM, first compound 0.001 µM
[3] = second compound 0.1 µM, first compound 0.00316 µM
[4] = second compound 0.1 µM, first compound 0.01 µM
[5] = second compound 0.1 µM, first compound 0.0316 µM
[6] = second compound 0.1 µM, first compound 0.1 µM
[7] = second compound 0.316 µM, first compound 0.000316 µM
[8] = second compound 0.316 µM, first compound 0.001 µM
[9] = second compound 0.316 µM, first compound 0.00316 µM
[10] = second compound 0.316 µM, first compound 0.01 µM
[11] = second compound 0.316 µM, first compound 0.0316 µM
[12] = second compound 0.316 µM, first compound 0.1 µM
[13] = second compound 1 µM, first compound 0.000316 µM
[14] = second compound 1 µM, first compound 0.001 µM
[15] = second compound 1 µM, first compound 0.00316 µM
[16] = second compound 1 µM, first compound 0.01 µM
[17] = second compound 1 µM, first compound 0.0316 µM
[18] = second compound 1 µM, first compound 0.1 µM
[19] = second compound 3.16 µM, first compound 0.000316 µM
[20] = second compound 3.16 µM, first compound 0.001 µM
[21] = second compound 3.16 µM, first compound 0.00316 µM
[22] = second compound 3.16 µM, first compound 0.01 µM
[23] = second compound 3.16 µM, first compound 0.0316 µM
[24] = second compound 3.16 µM, first compound 0.1 µM
[25] = second compound 10 µM, first compound 0.000316 µM
[26] = second compound 10 µM, first compound 0.001 µM
[27] = second compound 10 µM, first compound 0.00316 µM
[28] = second compound 10 µM, first compound 0.01 µM
[29] = second compound 10 µM, first compound 0.0316 µM
[30] = second compound 10 µM, first compound 0.1 µM

Row | SMILES | IC50 (second compound 0.1 µM) | IC50 (second compound 0.316 µM) | IC50 (second compound 1 µM) | IC50 (second compound 3.16 µM) | IC50 (second compound 10 µM) | viability, T/C [1] | viability, T/C [2] | viability, T/C [3] | viability, T/C [4] | viability, T/C [5] | viability, T/C [6] | viability, T/C [7] | viability, T/C [8] | viability, T/C [9] | viability, T/C [10] | viability, T/C [11] | viability, T/C [12] | viability, T/C [13] | viability, T/C [14] | viability, T/C [15] | other results
1 | CC(C)CC(NC(=O)C(Cc1ccccc1)NC(=O)c1cnccn1)B(O)O (stereo not given) + NC1CCC(NC2CC2c2ccccc2)CC1 | 10.2 nM | 12.1 nM | 9.4 nM | 9.37 nM | 6.59 nM | 103% | 110% | 92.4% | 51.5% | 10.4% | 4% | 111% | 101% | 100% | 58.1% | 9.17% | 0.68% | 104% | 98.4% | 98.7% | viability, T/C [16]: 46.7%; viability, T/C [17]: 8.19%; viability, T/C [18]: 0.58%; viability, T/C [19]: 95.9%; viability, T/C [20]: 97.1%; viability, T/C [21]: 86.1%; viability, T/C [22]: 48.3%; viability, T/C [23]: 7.8%; viability, T/C [24]: 0.14%; viability, T/C [25]: 94.1%; viability, T/C [26]: 85.4%; viability, T/C [27]: 82.6%; viability, T/C [28]: 31.4%; viability, T/C [29]: 8.41%; viability, T/C [30]: 0.25%
2 | Cn1ncnc1C1c2n[nH]c(=O)c3cc(F)cc(c23)NC1c1ccc(F)cc1 (stereo not given) + NC1CCC(NC2CC2c2ccccc2)CC1 | > 100 nM | > 100 nM | > 100 nM | > 100 nM | > 100 nM | 110% | 108% | 110% | 103% | 103% | 96.6% | 109% | 106% | 102% | 102% | 104% | 103% | 105% | 109% | 105% | viability, T/C [16]: 104%; viability, T/C [17]: 102%; viability, T/C [18]: 98%; viability, T/C [19]: 106%; viability, T/C [20]: 109%; viability, T/C [21]: 104%; viability, T/C [22]: 109%; viability, T/C [23]: 101%; viability, T/C [24]: 105%; viability, T/C [25]: 89.4%; viability, T/C [26]: 95.9%; viability, T/C [27]: 102%; viability, T/C [28]: 92.9%; viability, T/C [29]: 89.8%; viability, T/C [30]: 84.5%
